# Measured values reported in patent US8748491B2, “Dietary and pharmaceutical compositions containing tricyclic diterpenes and their derivatives and their uses” (priority 2006, dated 2014).
# How the values were obtained:
# mouse = test: Light dark box test; assay type: in vivo; settings: for NUMBER OF CROSSINGS % change from control: mouse
# Source text: The method, which detects anxiolytic activity, follows that described by Crawley, 1981 Pharmacol. Biochem. Behav., 15:695-699. Anxiolytics increase the time spent in the light compartment.
# Animals were placed into the light compartment of a 2-compartment box with one half light and open (25×27×27 cm) and the other half dark and closed (20×27×27 cm). The time spent in each compartment as well as the number of times the animal crosses from one side to the other is scored during a 3-minute test. 15 mice were studied per group. The test was performed blind.
# Carnosic acid was evaluated at 3 doses (100, 200, 400 mg/kg BW), administered by oral gavage (p.o.) 24, 5 and 1 hour before the test, and compared with a vehicle control group (corn oil). Carnosic acid was dissolved in corn oil (“vehicle”). Clobazam (32 mg/kg p.o.), administered 1 hour before the test, was used as reference substance. Mice in this group received additional administrations of vehicle at 24 and 5 hours before the test in order to maintain experimental blinding.
# [1] = biological target: T1, Monoamine oxidase B (MAO-B) (Homo sapiens, UniProt P27338); test: Monoamine oxidase B inhibition (benzylamine substrate, H2O2/vanillic acid/HRP readout); assay type: biochemical
# T1 sequence (P27338 1-520): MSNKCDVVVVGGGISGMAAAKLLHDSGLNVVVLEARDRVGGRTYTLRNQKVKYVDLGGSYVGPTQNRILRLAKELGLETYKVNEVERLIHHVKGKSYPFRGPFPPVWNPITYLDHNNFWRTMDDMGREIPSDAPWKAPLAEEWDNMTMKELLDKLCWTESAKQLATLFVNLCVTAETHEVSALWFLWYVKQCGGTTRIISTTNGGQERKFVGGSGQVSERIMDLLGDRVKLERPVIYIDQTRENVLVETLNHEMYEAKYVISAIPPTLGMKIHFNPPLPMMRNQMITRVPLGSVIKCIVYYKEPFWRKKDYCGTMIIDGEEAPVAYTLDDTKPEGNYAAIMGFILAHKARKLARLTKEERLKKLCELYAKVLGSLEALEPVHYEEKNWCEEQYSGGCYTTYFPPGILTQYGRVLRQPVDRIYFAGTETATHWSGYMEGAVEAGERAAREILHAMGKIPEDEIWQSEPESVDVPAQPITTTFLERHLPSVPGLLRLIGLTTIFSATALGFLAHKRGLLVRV
# Procedure: The organic amines p-tyramine or benzylamine were used as substrates for the Monoamine oxidase A (MAO-A) and B (MAO-B) enzymes respectively. The H2O2 produced by this reaction was quantified by reaction with vanillic acid, catalysed by horse radish peroxidase (HRP).
# The reactions were carried out in polystyrene microtitre plates. The MAO enzymes (final concentration 2 U/ml) were mixed with either p-tyramine (Sigma, final concentration 0.5 mM) or benzylamine (Sigma, final concentration 0.5 mM) as appropriate and the chromogenic solution (containing vanillic acid (Fluka), 4-aminoantipyrine (Fluka) and horse radish peroxidase (Sigma), final concentrations 0.25 mM, 0.125 mM and 1 U/ml respectively) in 0.2 M potassium phosphate buffer, pH 7.6. The reactions were followed in a microtitre plate absorbance reader e.g. Spectramax M5 (Molecular Devices Corporation). Absorbance readings at 495 nm were taken every 15 seconds for 40 minutes and the initial reaction velocities calculated by linear regression using SOFTmaxPro (Molecular Devices Corporation).
# The effect of tricyclic diterpenes and their derivatives according to formula I on the monoamine oxidase enzymes was determined by their inclusion in the assay at a range of concentrations between 0.03 and 100 μM for 10 minutes prior to and during the incubation with substrate. To determine the effect of the compounds on the HRP catalyzed portion of the reaction, the MAO enzyme was replaced by H2O2 (Molecular Probes, final concentration 0.2 mM). The reactions containing MAO-A and MAO-B were both inhibited by tricyclic diterpenes and their derivatives according to formula I in a dose-dependent manner, whilst the control reaction, was unaffected. The measured IC50 values for inhibition of monoamine oxidase activity by carnosic acid, carnosic acid-12-methyl ether and 20-deoxo-carnosol are shown in Table 3.
# [2] = biological target: T2, human serotonin re-uptake transporter (hSERT) (Homo sapiens, UniProt P31645); test: Inhibition of tritiated serotonin uptake into transfected HEK-293 cells; assay type: cell-based; settings: HEK-293 cells expressing hSERT; 20 nM [3H] serotonin, 40 min, 37° C.; mean ± s.e.m.
# T2 construct: host or cells: HEK-293
# T2 sequence (P31645 whole entry): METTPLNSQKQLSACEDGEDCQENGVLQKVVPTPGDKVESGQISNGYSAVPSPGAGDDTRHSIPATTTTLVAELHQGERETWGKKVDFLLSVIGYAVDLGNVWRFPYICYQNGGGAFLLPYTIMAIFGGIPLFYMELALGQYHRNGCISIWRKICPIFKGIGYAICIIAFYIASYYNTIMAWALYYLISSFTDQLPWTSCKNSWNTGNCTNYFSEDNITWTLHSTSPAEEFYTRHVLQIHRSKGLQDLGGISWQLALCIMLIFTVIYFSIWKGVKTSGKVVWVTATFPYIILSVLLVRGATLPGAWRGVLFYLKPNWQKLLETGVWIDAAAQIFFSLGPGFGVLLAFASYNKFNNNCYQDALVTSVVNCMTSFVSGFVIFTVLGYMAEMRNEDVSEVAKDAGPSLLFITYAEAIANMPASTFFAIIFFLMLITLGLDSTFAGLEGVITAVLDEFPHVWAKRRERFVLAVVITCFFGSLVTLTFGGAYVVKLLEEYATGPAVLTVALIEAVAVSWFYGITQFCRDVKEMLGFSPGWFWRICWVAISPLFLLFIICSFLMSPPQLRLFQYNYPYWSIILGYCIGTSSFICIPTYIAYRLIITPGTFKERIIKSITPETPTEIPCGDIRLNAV
# Source text: HEK-293 cells stably expressing the human serotonin re-uptake transporter (hSERT) were obtained from R. Blakely, Vanderbilt University, USA. The cells were routinely grown in Dulbecco's Modified Eagle's Medium (Bioconcept) containing 10% fetal calf serum, penicillin, streptomycin, L-glutamine and the antibiotic G418 and passaged by trypsinisation. On the day of assay, cells from 80% confluent flasks were harvested by gentle washing with warm phosphate buffered saline (PBS). […] Serotonin uptake into the cells was determined by addition of radio-labelled [^3H] serotonin (GE Healthcare) at a concentration of 20 nM, and incubation for 40 minutes at 37° C. with gentle shaking. At the end of this time unincorporated label was removed by filtration though Unifilter 96 GF/B plates (Perkin Elmer) using a Tomtec Mach III M cell harvester. The incorporated serotonin retained on the plates was quantified by liquid scintillation counting using Microscint-40/Topcount (Perkin Elmer).
smiles,measurement,setting,value
"CC(C)c1cc2c(c(O)c1O)[C@@]1(C(=O)O)CCCC(C)(C)[C@@H]1CC2 [Carnosic acid, carnosic acid]",NUMBER OF CROSSINGS % change from control,"mouse; 100 mg/kg p.o. −24, −5, −1 h",+17%
same,NUMBER OF CROSSINGS % change from control,"mouse; 200 mg/kg p.o., −24, −5, −1 h",−21%
same,NUMBER OF CROSSINGS % change from control,"mouse; 400 mg/kg p.o. −24, −5, −1 h",+23%
same,number of crossings (in words),"mouse; mouse, 100, 200 and 400 mg/kg p.o.",did not affect
same,IC50,[1],8.6 ± 0.6 µM
same,IC50,[2],36.4 ± 6.8 µM
